# Values of other authors, collected in PMC3985708 (Biochemistry, 2014).
# Tests used:
# [1] = molecular target: unmodified hASL^Lys3; details: read-out: Kd of NCp7 for unmodified ASL
# [2] = tested on: modified hASL^Lys3
# [3] = molecular target: modified hASL^Lys3UUU; details: read-out: Kd, modified hASL^Lys3UUU; Kd value from previous studies
Kd [3] [nM],Substance,Kd [1] [nM],Increase of NCp7 affinity for hASL^Lys3 by the modifications ([2]; modified versus unmodified ASL) [fold],"Kd ([2]; read-out: Kd of NCp7 for modified ASL, modified hASL^Lys3) [nM]"
–,"NCp7: HIV-1 nucleocapsid protein 7 (MQRGNFRNQRKIVKCFNCGKEGHTARNCRAPRKKGCWKCGKEGHQMKDCTERQAN; Nucleocapsid protein p7; UniProt P04591 378-432, looked up)",2300 ± 620,~10,280 ± 30
500 ± 100,RVTHHAFLGAHRTVG [P6],–,–,–
